Test results taken from patent US10513519B2, “Solid forms of (1S,4S)-4-(2-(((3S,4R)-3-fluorotetrahydro-2H-pyran-4-yl)amino)-8-((2,4,6-trichlorophenyl)amino)-9H-purin-9-yl)-1-methylcyclohexane-1-carboxamide and methods of their use” (Signal Pharmaceuticals, LLC, priority 2016, dated 2019).

Test system: cancer cell lines
Experiment: Multiplexed cytotoxicity assay: cell proliferation (relative cell count IC50, GI50)
Format: cell-based
Conditions: Homo sapiens
Procedure: (§1) Cells are grown in RPMI1640, 10% FBS, 2 mM L-alanyl-L-Glutamine, 1 mM Na pyruvate or a special medium in a humidified atmosphere of 5% CO2 at 37° C. Cells are seeded into 384-well plates and incubated in a humidified atmosphere of 5% CO2 at 37° C. Compounds are added 24 h post cell seeding. At the same time, a time zero untreated cell plate is generated. After a 72 hour incubation period, cells are fixed and stained with fluorescently labeled antibodies and nuclear dye to allow visualization of nuclei, apoptotic cells and mitotic cells. Apoptotic cells are detected using an anti-active caspase-3 antibody. Mitotic cells are detected using an anti phospho-histone-3 antibody. Compounds are serially diluted 3.16-fold and assayed over 10 concentrations in a final assay concentration of 0.1% DMSO from the highest test concentration of 10 μM. Automated fluorescence microscopy was carried out using a Molecular Devices ImageXpress Micro XL high-content imager, and images are collected with a 4× objective.
Sixteen-bit TIFF images are acquired and analyzed with MetaXpress 5.1.0.41 software. Cell proliferation is measured by the signal intensity of the incorporated nuclear dye. The cell proliferation assay output is referred to as the relative cell count. To determine the cell proliferation end point, the cell proliferation data output is transformed to percentage of control (POC) using the following formula: POC=relative cell count(compound wells)/relative cell count(vehicle wells)×100
GI50 is the concentration needed to reduce the observed growth by half. This is the concentration that inhibits the growth to the level midway between growth in untreated cells and the number of cells seeded in the well (Time zero value). The IC50 values are calculated using nonlinear regression to fit data to a sigmoidal 4 point, 4 parameter One-Site dose response model, where: y(fit)=A+[(B−A)/(1+((C/x)^D))].
as §1, with “In another experiment, cells were grown” for “Cells are grown”, “Cells were” for “Cells are”, “Compounds were” for “Compounds are”, “plate was” for “plate is”, “cells were” for “cells are”, “images were” for “images are”
Sixteen-bit TIFF images were acquired and analyzed with MetaXpress 5.1.0.41 software. Cell proliferation was measured by the signal intensity of the incorporated nuclear dye. The cell proliferation assay output was referred to as the relative cell count. To determine the cell proliferation end point, the cell proliferation data output was transformed to percentage of control (POC) using the following formula: POC=relative cell count(compound wells)/relative cell count(vehicle wells)×100
GI50 refers to the concentration needed to reduce the observed growth by half. This corresponds to the concentration that inhibits the growth to the level midway between growth in untreated cells and the number of cells seeded in the well (Time zero value). The IC50 values were calculated using nonlinear regression to fit data to a sigmoidal 4 point, 4 parameter One-Site dose response model, where: y(fit)=A+[(B−A)/(1+((C/x)^D))].

[1] = BV-173, BV173 (Hematopoietic and lymphoid, Leukemia)
[2] = BXPC-3, 72 h, BXPC3, Pancreas, 72 h
[3] = BeWo, 72 h, Female GU, Placenta
[4] = C-4-II, C4II (Female GU, Cervix)
[5] = C-33-A, C33A (Female GU, Cervix)
[6] = CA46, CA46 (Hematopoietic and lymphoid, Lymphoma)
[7] = CAL-62, 72 h, CAL62, Endocrine, Thyroid, 72 h
[8] = CAPAN-1, 72 h, CAPAN1, Pancreas, 72 h
[9] = CCF-STTG1, CCFSTTG1 (CNS, Glioma)
[10] = CCRF-CEM, CCRFCEM (Hematopoietic and lymphoid, Leukemia)
[11] = CFPAC-1, 72 h, CFPAC1, Pancreas, 72 h
[12] = CGTH-W-1, 72 h, CGTHW1, Endocrine, Thyroid, 72 h
[13] = CHP-212, 72 h, CHP212, CNS, Neuroblastoma, 72 h
[14] = COLO-320-HSR, COLO320HSR (Colon)
[15] = COLO-829, COLO829 (Skin, Melanoma)
[16] = COR-L23, 72 h, CORL23, Lung, NSCLC, 72 h
[17] = COR-L105, 72 h, CORL105, Lung, NSCLC, 72 h
[18] = CRO-AP2, CROAP2 (Hematopoietic and lymphoid, Lymphoma)
[19] = Ca-Ski, 72 h, CASKI, Female GU, Ovary
[20] = Calu-1, 72 h, CALU1, Lung, NSCLC, 72 h
[21] = Calu-6, 72 h, CALU6, Lung, NSCLC, 72 h
[22] = Caov-3, 72 h, CAOV3, Female GU, Ovary, 72 h
[23] = Capan-2, 72 h, CAPAN2, Pancreas, 72 h
[24] = ChaGo-K-1, 72 h, CHAGOK1, Lung, NSCLC, 72 h
[25] = D283 Med, D283MED (CNS, Medulloblastoma)
[26] = DBTRG-05MG, DBTRG05MG (CNS, Glioma)
[27] = DMS-53, 72 h, DMS53, Lung, SCLC, 72 h
[28] = DMS-114, 72 h, DMS114, Lung, SCLC, 72 h
[29] = DMS-273, 72 h, DMS273, Lung, SCLC, 72 h
[30] = DOHH-2, DOHH2 (Hematopoietic and lymphoid, Lymphoma)
[31] = DU-145, 72 h, DU145, Prostate, 72 h
[32] = Daoy, DAOY (CNS, Medulloblastoma)
[33] = Daudi, DAUDI (Hematopoietic and lymphoid, Lymphoma)
[34] = Detroit 562, DETROIT562 (Head and Neck)
[35] = DoTc2-4510, DOTC24510 (Female GU, Cervix)
[36] = GA-10, GA10 (Hematopoietic and lymphoid, Lymphoma)
[37] = HEC-1-A, 72 h, HEC1A, Female GU, Uterus
[38] = HEL 92.1.7, HEL9217 (Hematopoietic and lymphoid, Leukemia)
[39] = HPAF-II, 72 h, HPAFII, Pancreas
[40] = HT-1080, 72 h, HT1080, Soft Tissue, Sarcoma, 72 h
[41] = Hs 294T, HS294T (Skin, Melanoma)
[42] = Hs 695T, HS695T (Skin, Melanoma)
[43] = HuP-T4, 72 h, HUPT4, Pancreas, 72 h
[44] = J-RT3-T3-5, JRT3T35 (Hematopoietic and lymphoid, Leukemia)
[45] = JEG-3, 72 h, JEG3, Female GU, Placenta, 72 h

C[C@]1(C(N)=O)CC[C@@H](n2c(Nc3c(Cl)cc(Cl)cc3Cl)nc3cnc(N[C@@H]4CCOC[C@H]4F)nc32)CC1 [Compound 1, cis-4-[2-{[(3S,4R)-3-fluorooxan-4-yl]amino}-8-(2,4,6-trichloroanilino)-9H-purin-9-yl]-1-methylcyclohexane-1-carboxamide]
GI50 (BT-474, BT474 (Breast)): > 10000 nM
IC50 (BT-474, BT474 (Breast)): > 10000 nM
GI50 (BT-549, BT549 (Breast)): > 10000 nM
IC50 (BT-549, BT549 (Breast)): > 10000 nM
GI50 [1]: 1100 nM
IC50 [1]: > 10000 nM
GI50 [2]: 36.9 nM
IC50 [2]: 45.5 nM
GI50 [3]: 5160 nM
IC50 [3]: 5690 nM
GI50 [4]: > 10000 nM
IC50 [4]: > 10000 nM
GI50 [5]: 191 nM
IC50 [5]: 407 nM
GI50 [6]: 14.6 nM
IC50 [6]: 21.3 nM
GI50 (CAKI-1, CAKI1 (Kidney)): 91.4 nM
IC50 (CAKI-1, CAKI1 (Kidney)): 151 nM
GI50 (CAKI-2, CAKI2 (Kidney)): 139 nM
IC50 (CAKI-2, CAKI2 (Kidney)): 193 nM
GI50 (CAL-27, CAL27 (Head and Neck)): 59.2 nM
IC50 (CAL-27, CAL27 (Head and Neck)): 66.1 nM
GI50 [7]: 83.6 nM
IC50 [7]: 93.6 nM
GI50 (CAMA-1, CAMA1 (Breast)): 298 nM
IC50 (CAMA-1, CAMA1 (Breast)): 2240 nM
GI50 [8]: 105 nM
IC50 [8]: > 10000 nM
GI50 [9]: > 10000 nM
IC50 [9]: > 10000 nM
GI50 [10]: 5030 nM
IC50 [10]: 6050 nM
GI50 [11]: > 10000 nM
IC50 [11]: > 10000 nM
GI50 [12]: 54.7 nM
IC50 [12]: 60.5 nM
GI50 (CHL-1, CHL1 (Skin, Melanoma)): 103 nM
IC50 (CHL-1, CHL1 (Skin, Melanoma)): 117 nM
GI50 [13]: 6.6 nM
IC50 [13]: 16.5 nM
GI50 (COLO 201, COLO201 (Colon)): 12.8 nM
IC50 (COLO 201, COLO201 (Colon)): 17.2 nM
GI50 (COLO 205, COLO205 (Colon)): 9.5 nM
IC50 (COLO 205, COLO205 (Colon)): 11.7 nM
GI50 (COLO 320DM, COLO320DM (Colon)): 9110 nM
IC50 (COLO 320DM, COLO320DM (Colon)): > 10000 nM
GI50 [14]: 4190 nM
IC50 [14]: 4440 nM
GI50 [15]: 12.1 nM
IC50 [15]: 34.3 nM
GI50 [16]: 23.8 nM
IC50 [16]: 28.3 nM
GI50 [17]: 16.5 nM
IC50 [17]: 41.4 nM
GI50 [18]: 996 nM
IC50 [18]: 2580 nM
GI50 [19]: 6760 nM
IC50 [19]: > 10000 nM
GI50 [20]: 96.7 nM
IC50 [20]: 149 nM
GI50 [21]: 46.3 nM
IC50 [21]: 83 nM
GI50 [22]: 429 nM
IC50 [22]: > 10000 nM
GI50 [23]: 136 nM
IC50 [23]: 291 nM
GI50 [24]: > 10000 nM
IC50 [24]: > 10000 nM
GI50 [25]: 2560 nM
IC50 [25]: 7550 nM
GI50 [26]: 43.2 nM
IC50 [26]: 98.4 nM
GI50 (DLD-1, DLD1 (Colon)): 162 nM
IC50 (DLD-1, DLD1 (Colon)): 197 nM
GI50 [27]: 998 nM
IC50 [27]: > 10000 nM
GI50 [28]: 68.8 nM
IC50 [28]: 600 nM
GI50 [29]: 5960 nM
IC50 [29]: 6790 nM
GI50 [30]: 5540 nM
IC50 [30]: 5790 nM
GI50 [31]: 73.8 nM
IC50 [31]: 96.5 nM
GI50 [32]: 749 nM
IC50 [32]: 1090 nM
GI50 [33]: 17.7 nM
IC50 [33]: > 10000 nM
GI50 [34]: 347 nM
IC50 [34]: > 10000 nM
GI50 [35]: 40 nM
IC50 [35]: 132 nM
GI50 (EFM-19, EFM19 (Breast)): 4200 nM
IC50 (EFM-19, EFM19 (Breast)): > 10000 nM
GI50 (FaDu, FADU (Head and Neck)): 435 nM
IC50 (FaDu, FADU (Head and Neck)): 787 nM
GI50 (G-361, G361 (Skin, Melanoma)): 102 nM
IC50 (G-361, G361 (Skin, Melanoma)): 150 nM
GI50 (G-401, G401 (Kidney)): 77.4 nM
IC50 (G-401, G401 (Kidney)): 86 nM
GI50 (G-402, G402 (Kidney)): 50.4 nM
IC50 (G-402, G402 (Kidney)): 92.5 nM
GI50 [36]: 46.8 nM
IC50 [36]: 56.7 nM
GI50 (HCT-15, HCT15 (Colon)): 1970 nM
IC50 (HCT-15, HCT15 (Colon)): 2230 nM
GI50 (HCT-116, HCT116 (Colon)): 19.4 nM
IC50 (HCT-116, HCT116 (Colon)): 20.4 nM
GI50 [37]: 1800 nM
IC50 [37]: 2810 nM
GI50 [38]: 4620 nM
IC50 [38]: 8230 nM
GI50 (HMCB, HMCB (Skin, Melanoma)): 72.4 nM
IC50 (HMCB, HMCB (Skin, Melanoma)): 113 nM
GI50 [39]: 13 nM
IC50 [39]: 17.5 nM
GI50 (HRT-18, HRT18 (Colon)): 77.5 nM
IC50 (HRT-18, HRT18 (Colon)): 81.9 nM
GI50 (HT1197, HT1197 (Bladder)): 444 nM
IC50 (HT1197, HT1197 (Bladder)): > 10000 nM
GI50 (HT-29, HT29 (Colon)): 12.9 nM
IC50 (HT-29, HT29 (Colon)): 16.7 nM
GI50 [40]: 64.8 nM
IC50 [40]: 72.7 nM
GI50 (HT-1376, HT1376 (Bladder)): 792 nM
IC50 (HT-1376, HT1376 (Bladder)): 3480 nM
GI50 (HeLa, HELA (Female GU, Cervix)): 6750 nM
IC50 (HeLa, HELA (Female GU, Cervix)): 8710 nM
GI50 (HepG2, HEPG2 (Liver)): 22.4 nM
IC50 (HepG2, HEPG2 (Liver)): 64.3 nM
GI50 [41]: 50.7 nM
IC50 [41]: 70.6 nM
GI50 (Hs 683, HS683 (CNS, Glioma)): 148 nM
IC50 (Hs 683, HS683 (CNS, Glioma)): 305 nM
GI50 [42]: 36.3 nM
IC50 [42]: 160 nM
GI50 (Hs746T, 72 h, Stomach): 39.6 nM
IC50 (Hs746T, 72 h, Stomach): 122 nM
GI50 (Hs-578T, HS578T (Breast)): 153 nM
IC50 (Hs-578T, HS578T (Breast)): 837 nM
GI50 (HuCCT-1, HUCCT1 (Liver)): 53.7 nM
IC50 (HuCCT-1, HUCCT1 (Liver)): 63.3 nM
GI50 [43]: 43.4 nM
IC50 [43]: 50.5 nM
GI50 (HuTu80, HUTU80 (Duodenum)): 57 nM
IC50 (HuTu80, HUTU80 (Duodenum)): 69.5 nM
GI50 [44]: 3580 nM
IC50 [44]: 4780 nM
GI50 [45]: 6340 nM
IC50 [45]: 7750 nM
